We go through 15 molecules from PubChem BioAssay (NCI).

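1) Cells in 96-well plates. 2) Compound, 48 h, 5 concentrations. 3) Linear interpolation between surrounding doses. 4) Unreached endpoint = highest concentration. TGI is the concentration that stops growth completely.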

What all share (assay): inhibition of tumour cell growth, NCI panel, 48 h
The test system of experiment [1] is 786-0 renal.
Experiment [2] deals with BT-549 breast.
Experiment [3] relates to CAKI-1 renal.
Experiment [4] deals with HT29 colon.
For experiment [5], the system named is M14 melanoma.
The test system of experiment [6] is MDA-MB-231 breast.
In experiment [7] the test system is NCI-H23 lung.
Experiment [8] concerns NCI-H460 lung.
For experiment [9], the system named is OVCAR-3 ovarian.
The test system of experiment [10] is OVCAR-4 ovarian.
Experiment [11] concerns RXF 393 renal.
The subject of experiment [12] is SF-539 CNS.
Experiment [13] has as its system SK-MEL-28 melanoma.
For experiment [14], the system named is SN12C renal.
Experiment [15] concerns T-47D breast.
Experiment [16] relates to UACC-257 melanoma.
Experiment [17] concerns PC-3 prostate.
In experiment [18] the test system is SK-OV-3 ovarian.
The test system of experiment [19] is UACC-62 melanoma.
For experiment [20], the system named is HCC-2998 colon.

Consider `C/C(O[Si](C(C)C)(C(C)C)C(C)C)=C(\C)C(=O)N(C)c1ccccc1Cl`, for which the TGI in [1], in experiment [2], in experiment [3], in [4], in [5] and in experiment [6] was greater than 100 µM in each case. Also, the TGI in experiment [7], in experiment [8], in experiment [9], in [10], in experiment [11] and in experiment [12] was greater than 100 µM in each case. For the same molecule, the TGI in experiment [13], in experiment [14], in experiment [15] and in [16] was greater than 100 µM throughout.
As to `CC12CCC(CC1(Cl)Cl)C2` (centres undefined), the TGI in experiment [1], in experiment [2], in experiment [3], in [4], in experiment [5] and in experiment [7] was greater than 100 µM each time. In addition, the TGI in experiment [8], in [9], in experiment [10], in experiment [17], in [13] and in experiment [18] was greater than 100 µM each time. In addition, the TGI in experiment [14], in experiment [15], in [16] and in [19] was greater than 100 µM each time.
As to `NC(N)=N/N=C/c1c(-c2cc([N+](=O)[O-])c(Cl)cc2Cl)nc2n1CCS2`, the TGI in [1] is greater than 100 µM; in experiment [2], 9.7 µM; in experiment [3], greater than 100 µM; in [20], 5.4 µM; in experiment [4] it was 27.5 µM; in experiment [5] it was greater than 100 µM. The TGI is greater than 100 µM in experiment [6]; 48.3 µM in [7]; greater than 100 µM in [8]; greater than 100 µM in [9]; 33.9 µM in experiment [10]; greater than 100 µM in experiment [17]. In addition, the TGI in experiment [11] is greater than 100 µM; in experiment [12], greater than 100 µM; in experiment [13] it was 22.2 µM; in experiment [14], greater than 100 µM; in experiment [16] it was 54.2 µM; in experiment [19], 97.1 µM.
Consider `C/C(O)=C(\C=NC(=S)c1ccncc1)C(=O)Nc1ccccc1C`, for which the TGI in experiment [1], in experiment [2], in experiment [3], in [20], in experiment [4] and in experiment [5] was greater than 100 µM in each case. For the same molecule, the TGI in experiment [6], in [7], in experiment [8], in [9], in experiment [10] and in experiment [11] was greater than 100 µM each time. For the same molecule, the TGI in [12], in experiment [13], in experiment [18], in experiment [14], in [15] and in experiment [16] was greater than 100 µM each time. For the same molecule, in [19], the TGI is greater than 100 µM.
On to `CCOC(=O)C1(C(=O)OCC)C=C(c2ccccc2)N(C2OC(COC(C)=O)C(OC(C)=O)C(OC(C)=O)C2OC(C)=O)C1=S` (centres undefined), for which the TGI in experiment [1], in experiment [2], in experiment [3], in experiment [20], in [4] and in experiment [5] was greater than 100 µM each time. For the same molecule, the TGI in experiment [6], in [7], in experiment [8], in [9], in experiment [10] and in experiment [11] was greater than 100 µM each time. In addition, the TGI in [12], in [13], in experiment [18], in experiment [14], in [15] and in experiment [16] was greater than 100 µM throughout. Besides, the TGI in experiment [19] was greater than 100 µM.
On to `CC(=O)NC1C(OCc2ccccc2)OC(CO)C(O)C1OCC(=O)N[C@@H](C)C(=O)N[C@H](CCC(=O)NCCNc1ccc([N+](=O)[O-])c2[nH]c3ccccc3c(=O)c12)C(N)=O` (some centres undefined), for which the TGI in [1] is 83.2 µM; in experiment [2], 46 µM; in [3] it was greater than 100 µM; in [20] it was 36 µM; in experiment [4], 85.8 µM; in experiment [5] it was greater than 100 µM. Moreover, the TGI in experiment [6] is 94.4 µM; in experiment [7], 90 µM; in experiment [8] it was 30.7 µM; in experiment [9], greater than 100 µM; in experiment [10] it was 67.9 µM; in experiment [12], greater than 100 µM. The TGI in experiment [13] was greater than 100 µM; in experiment [18], greater than 100 µM; in experiment [14] it was greater than 100 µM; in [15] it was greater than 100 µM; in experiment [16] it was 54.3 µM; in experiment [19], 46.6 µM.
Take `Cc1nc(Nc2ccc(Cl)c(Cl)c2)sc1C(=O)/C=C/c1ccc2c(c1)OCO2`: the TGI in experiment [1] was 38.4 µM; in [2] it was 46.1 µM; in experiment [3] it was 32.6 µM; in experiment [20], 88.1 µM; in [4], greater than 100 µM; in experiment [7], 49.5 µM. For the same molecule, the TGI is greater than 100 µM in experiment [8]; 30 µM in experiment [9]; 33.9 µM in [10]; 29.3 µM in experiment [11]; 61.7 µM in [12]; 86.9 µM in experiment [13]. In addition, the TGI in [18] is 33.6 µM; in experiment [15], greater than 100 µM; in [16] it was greater than 100 µM; in [19], greater than 100 µM.
On to `COc1cc(S(=O)(=O)Nc2ccc(-c3csc(N4C(=O)C(Cl)C4c4cccs4)n3)cc2)ccc1Cl` (centres undefined), for which the TGI in experiment [1] was 68.3 µM; in [2] it was greater than 100 µM; in experiment [3], greater than 100 µM; in experiment [20], greater than 100 µM; in experiment [4], greater than 100 µM; in experiment [5], greater than 100 µM. Also, the TGI in experiment [7] was greater than 100 µM; in experiment [8] it was greater than 100 µM; in experiment [9] it was greater than 100 µM; in [10], 77.5 µM; in [17], greater than 100 µM; in [11] it was 86.4 µM. For the same molecule, the TGI in [12], in [13], in experiment [18], in [14], in experiment [15] and in [16] was greater than 100 µM throughout. The molecule also came in with a TGI in experiment [19] greater than 100 µM.
Regarding `COc1ccc2c3c1OC1C(OC)(OC)CC4(C=C2)CN(C)CCC314` (centres undefined), the TGI in experiment [1], in [2], in experiment [3], in experiment [20], in [4] and in experiment [6] was greater than 100 µM in each case. For the same molecule, the TGI in experiment [7], in experiment [8], in [9], in experiment [10], in [11] and in [12] was greater than 100 µM in each case. Besides, the TGI in experiment [13], in experiment [18], in experiment [14], in experiment [15], in [16] and in experiment [19] was greater than 100 µM throughout.
As for `C[n+]1ccccc1/C1=c2\cc/c([nH]2)=C(\c2cccc[n+]2C)C2=N/C(=C(/c3cccc[n+]3C)C3C=CC(N3)/C(c3cccc[n+]3C)=C3/C=CC1=N3)C=C2`, the TGI in experiment [1], in experiment [2], in [3], in experiment [20], in [4] and in [5] was greater than 100 µM each time. Besides, the TGI in [7], in experiment [8], in experiment [9], in [10], in experiment [17] and in [11] was greater than 100 µM in each case. Also, the TGI in experiment [12], in experiment [13], in experiment [18], in [14], in experiment [15] and in experiment [16] was greater than 100 µM each time. Moreover, in [19], the TGI is greater than 100 µM.
As for `O=C1NC(=Nc2ccccc2Cl)N/C1=C\c1ccc(Cl)cc1Cl`, the TGI in experiment [1], in experiment [2], in experiment [3], in experiment [20], in experiment [4] and in experiment [5] was greater than 100 µM in each case. Also, the TGI in experiment [7] was greater than 100 µM; in [8], greater than 100 µM; in experiment [9], greater than 100 µM; in experiment [10] it was greater than 100 µM; in [17] it was greater than 100 µM; in experiment [11], 40.1 µM. The TGI in [12] is greater than 100 µM; in experiment [13] it was greater than 100 µM; in [18], greater than 100 µM; in experiment [14] it was 73.6 µM; in experiment [15] it was greater than 100 µM; in experiment [16] it was greater than 100 µM. The TGI in [19] is greater than 100 µM.
Regarding `O=c1[nH]c(=O)n([C@@H]2O[C@H](CO)[C@@H](O)[C@@H]2F)cc1I`, the TGI in experiment [1], in experiment [2], in experiment [3], in experiment [20], in experiment [4] and in experiment [5] was greater than 100 µM throughout. Moreover, the TGI in [6], in experiment [7], in experiment [8], in experiment [9], in [10] and in experiment [11] was greater than 100 µM each time. Also, the TGI in [12], in experiment [13], in [18], in experiment [14], in experiment [15] and in experiment [16] was greater than 100 µM throughout. This molecule also displayed a TGI in experiment [19] greater than 100 µM.
Take `Cc1cc(NS(=O)(=O)c2ccc(Nc3c4ccccc4nc4c(C(=O)NCCO)cccc34)cc2)no1`: the TGI was greater than 100 µM in [1]; 40.3 µM in experiment [2]; 88.2 µM in [3]; greater than 100 µM in experiment [20]; 78.8 µM in experiment [4]; 70 µM in experiment [5]. For the same molecule, the TGI in [6] is greater than 100 µM; in experiment [7] it was greater than 100 µM; in [8] it was greater than 100 µM; in experiment [9], greater than 100 µM; in experiment [10] it was 86.7 µM; in experiment [17] it was greater than 100 µM. Moreover, the TGI in experiment [13], in experiment [18], in [14], in [15], in experiment [16] and in experiment [19] was greater than 100 µM throughout.
`CCC(=O)Nc1ccc(NCC(=O)Nc2ccc(OC)cc2)cc1`: the TGI is 46.4 µM in experiment [1]; 51.6 µM in experiment [2]; greater than 100 µM in experiment [3]; 35.5 µM in experiment [20]; greater than 100 µM in experiment [4]; greater than 100 µM in experiment [5]. Moreover, the TGI in experiment [7] amounted to 41.8 µM; in [9], 78.6 µM; in experiment [10], 35.2 µM; in experiment [17], 89.9 µM; in [11], 35.2 µM; in experiment [12], 38.6 µM. In addition, the TGI in experiment [13] is greater than 100 µM; in experiment [18] it was 95.3 µM; in experiment [14], 37.5 µM; in experiment [15], 70.1 µM; in [16], 64.2 µM; in experiment [19] it was 56.7 µM.
In the case of `C=C(C)C(=O)OC1C[C@H](COC(C)=O)C2CC=C(CO)C2C2OC(=O)C(=C)[C@H]12` (some centres undefined), the TGI in experiment [1] was 97.1 µM; in experiment [2], greater than 100 µM; in [3] it was greater than 100 µM; in experiment [20], greater than 100 µM; in [4] it was greater than 100 µM; in [5], 31 µM. The TGI in experiment [6], in experiment [7], in experiment [8], in experiment [9], in [17] and in [12] was greater than 100 µM throughout. The TGI in experiment [13], in experiment [18], in experiment [15], in experiment [16] and in [19] was greater than 100 µM each time.
